Counter-ions that a name gives are not always drawn.
target: T1, activated ROCK II (Rattus norvegicus, UniProt Q62868); experiment: Test for Evaluation of Inhibiting Activity to Rho Kinase; format: biochemical; conditions: S6 Kinase Substrate Peptide, [γ-32P]ATP, 30° C. for 15 minutes, Ki=IC50/(1+S/Km)
T1 construct: purchased Upstate Biotechnology 14-338
Experimental: In order to find the utility of the present invention compound, a Rho kinase inhibiting activity of the present invention compound was evaluated. The details thereof will be illustrated under the item of “Pharmacological Test (Test for Evaluation of Rho Kinase Inhibiting Activity)” in the Examples which will be mentioned later. The evaluation of the Rho kinase inhibiting activity of the present invention compound was carried out in accordance with the methods mentioned in J. Biol. Chem., 274, 32418 (1999) by Kaibuchi, et al. and mentioned in the instruction manual for use attached to the commercially available activated ROCK II [Upstate Biotechnology, Catalog No. 14-338 (5 units/50 μl)].
A. Test for Evaluation of Inhibiting Activity to Rho Kinase
In order to test the usefulness of the compounds of the present invention as a Rho kinase inhibitor, inhibiting activities of the compounds of the present invention to Rho kinase were evaluated and investigated in accordance with the methods of Kaibuchi, et al. mentioned in J. Biol. Chem., 274, 32418, 1999 and also with the methods mentioned in the instruction manual for use attached to commercially available activated ROCK II [Upstate Biotechnology, Catalog No. 14-338, (5 unite/50 μl)]. With regard to the test compounds, the compounds 5-1 to 5-73 (except the compounds 5-2, 5-9, 5-18, 5-37 and 5-38) were used.
A buffer was prepared so as to make tris(hydroxymethyl)aminomethane (Tris) (pH 7.5), 50 mM, ethyleneglycol bis(β-aminoethyl ether)-N,N,N′,N′-tetraacetic acid (EGTA), 2 mM, ethylenediaminetetraacetic acid (EDTA), 1 mM, magnesium chloride (MgCl2) 5 mM, β-glycerol phosphate, 5 mM, and dithiothreitol (DTT), 2 mM, by mixing them.
A mixed liquid of a 10 mM ATP solution with a commercially available [γ-^32P]ATP solution [NEN, Code No. NEG-002A] was diluted with the buffer to prepare a 300 μM ATP [γ-^32P]ATP solution.
A Commercially Available Activated ROCK II [Upstate Biotechnology, Catalog No. 14-338, (5 Units/50 μl)] was diluted to a concentration of 1/100 with the buffer to prepare an activated ROCK II solution.
A S6 Kinase Substrate Peptide [Upstate Biotechnology, Catalog No. 12-124,] (2 mg) was dissolved in distilled water to prepare a 1 mM substrate solution.
A test compound was dissolved in 10% aqueous dimethyl sulfoxide solution.
1) The test compound solution is placed in a microtube.
2) The 300 μM ATP [γ-^32P]ATP solution is added to the microtube followed by cooling to 4° C.
3) After that, a permanently activated ROCK II solution, 1 mM substrate solution and buffer are added to each microtube in that order, and the whole is mixed and cooled again at 4° C.
4) The microtube is placed in an incubator (30° C.) and the mixture is subjected to reaction for 15 minutes.
5) After cooling to 4° C., a 250 mM phosphoric acid solution (5 μl) is added to each microtube to stop the reaction.
6) The reaction solution (30 μl) is taken out from each microtube and spotted on a filter paper (Whatman P81) so that the reaction product (phosphorylated substrate) is adsorbed to the filter paper.
7) The filter paper is transferred to a beaker in which a 75 mM phosphoric acid solution is placed and shaken for 5 minutes so that unreacted [γ-^32P]AfP is washed out. The washing operation as such is carried out four times.
8) After that, the filter paper is dipped in ethanol to dehydrate and energy amount (radioactivity) of the reaction product adsorbed to the filter paper is measured with a liquid scintillation counter.
The IC50 value was calculated by an XL-fit (IDBS).
The Ki value is calculated by the following formula. S is an ATP concentration contained in the reaction solution while Km is a Michaelis-Menten constant. Ki=IC50/(1+S/Km)

T1 sequence (Q62868 11-550 limits assumed): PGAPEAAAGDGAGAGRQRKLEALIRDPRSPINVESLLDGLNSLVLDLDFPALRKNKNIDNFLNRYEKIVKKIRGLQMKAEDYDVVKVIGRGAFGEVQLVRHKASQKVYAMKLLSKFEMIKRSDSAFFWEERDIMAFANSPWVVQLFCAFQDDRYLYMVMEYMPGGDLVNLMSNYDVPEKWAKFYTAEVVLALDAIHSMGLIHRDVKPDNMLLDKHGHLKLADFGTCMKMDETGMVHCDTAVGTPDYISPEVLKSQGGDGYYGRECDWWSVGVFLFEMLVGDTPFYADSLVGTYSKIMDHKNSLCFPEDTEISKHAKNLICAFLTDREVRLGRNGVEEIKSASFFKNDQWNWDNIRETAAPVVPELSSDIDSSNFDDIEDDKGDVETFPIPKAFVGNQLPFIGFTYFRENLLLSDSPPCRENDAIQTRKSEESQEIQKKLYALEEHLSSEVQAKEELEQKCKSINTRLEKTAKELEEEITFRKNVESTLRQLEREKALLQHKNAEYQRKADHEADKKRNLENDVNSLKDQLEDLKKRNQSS

Row | Ki [nM] | Compound
1 | 19 | CC(C)(N)c1ccc(-c2ccc3[nH]ncc3c2)cc1 [Compound 5-1, 5-[4-(1-amino-1-methylethyl)phenyl]-1H-indazole dihydrochloride]
2 | 20 | CC(C)(N)c1ccc(-c2ccc3[nH]ncc3c2)nc1 [Compound 5-3, 5-[5-(1-Amino-1-methylethyl)pyridin-2-yl]-1H-indazole trihydrochloride]
3 | 28 | CC(C)(N)c1ccc(-c2ccc3[nH]ncc3c2[N+](=O)[O-])cc1 [Compound 5-4, 5-[4-(1-Amino-1-methylethyl)phenyl]-4-nitro-1H-indazole monohydrochloride]
4 | 44 | CC(C)(N)c1ccc(-c2ccc3[nH]ncc3c2N)cc1 [Compound 5-5, 4-Amino-5-[4-(1-amino-1-methylethyl)phenyl]-1H-indazole trihydrochloride]
5 | 260 | CC(C)(N)c1ccc(-c2ccc3[nH]ncc3c2NCc2ccccc2)cc1 [Compound 5-6, 5-[4-(1-Amino-1-methylethyl)phenyl]-4-benzylamino-1H-indazole dihydrochloride]
6 | 15 | CNc1c(-c2ccc(C(C)(C)N)cc2)ccc2[nH]ncc12 [Compound 5-7, 5-[4-(1-Amino-1-methylethyl)phenyl]-4-methylamino-1H-indazole trihydrochloride]
7 | 97 | COC(=O)c1n[nH]c2ccc(-c3ccc(C(C)(C)N)cc3)cc12 [Compound 5-8, 5-[4-(1-Amino-1-methylethyl)phenyl]-3-methoxy-carbonyl-1H-indazole dihydrochloride]
8 | 134 | CC(C)(N)c1ccc(-c2ccc3[nH]nc(C(N)=O)c3c2)cc1 [Compound 5-10, 3-Aminocarbonyl-5-[4-(1-amino-1-methylethyl)phenyl]-1H-indazole monohydrochloride]
9 | 144 | CC(C)(N)c1ccc(-c2ccc3[nH]nc(N)c3c2)cc1 [Compound 5-11, 3-Amino-5-[4-(1-amino-1-methylethyl)phenyl]-1H-indazole trihydrochloride]
10 | 103 | CC(C)(N)c1ccc(-c2ccc3[nH]nc(C#N)c3c2)cc1 [Compound 5-13, 5-[4-(1-Amino-1-methylethyl)phenyl]-3-cyano-1H-indazole dihydrochloride]
11 | 142 | CC(C)(N)c1ccc(-c2ccc3[nH]nc(CO)c3c2)cc1 [Compound 5-14, 5-[4-(1-Amino-1-methylethyl)phenyl]-3-hydroxymethyl-1H-indazole dihydrochloride]
12 | 56 | C=C(C)c1n[nH]c2ccc(-c3ccc(C(C)(C)N)cc3)cc12 [Compound 5-15, 5-[4-(1-Amino-1-methylethyl)phenyl]-3-(1-methyl-vinyl)-1H-indazole monotrifluoroacetate]
13 | 16 | CN(C)c1c(-c2ccc(C(C)(C)N)cc2)ccc2[nH]ncc12 [Compound 5-16, 5-[4-(1-Amino-1-methylethyl)phenyl]-4-dimethylamino-1H-indazole trihydrochloride]
14 | 199 | CC(C)(N)c1ccc(-c2ccc3[nH]ncc3c2[N+](=O)[O-])nc1 [Compound 5-17, 5-[5-(1-Amino-1-methylethyl)pyridin-2-yl]-4-nitro-1H-indazole dihydrochloride]
15 | 55 | NCc1ccc(-c2ccc3[nH]ncc3c2[N+](=O)[O-])cc1 [Compound 5-19, 5-[4-(Aminomethyl)phenyl]-4-nitro-1H-indazole dihydrochloride]
16 | 61 | NCc1ccc(-c2ccc3[nH]ncc3c2N)cc1 [Compound 5-20, 4-Amino-5-[4-(aminomethyl)phenyl]-1H-indazole trihydrochloride]

Row | Ki [nM] | Compound
17 | 26 | Nc1c(-c2ccc(C3(N)CCCC3)cc2)ccc2[nH]ncc12 [Compound 5-21, 4-Amino-5-[4-(1-aminocyclopentyl)phenyl]-1H-indazole dihydrochloride]
18 | 38 | CCC(N)(CC)c1ccc(-c2ccc3[nH]ncc3c2N)cc1 [Compound 5-22, 4-Araino-5-[4-(1-amino-1-ethylpropyl)phenyl]-1H-indazole trihydrochloride]
19 | 29 | CN(C)c1c(-c2ccc(CN)cc2)ccc2[nH]ncc12 [Compound 5-23, 5-[4-(Aminomethyl)phenyl]-4-dimethylamino-1H-indazole trihydrochloride]
20 | 14 | CN(C)c1c(-c2ccc(C3(N)CCCC3)cc2)ccc2[nH]ncc12 [Compound 5-24, 5-[4-(1-Aminocyclopentyl)phenyl]-4-dimethylamino-1H-indazole trihydrochloride]
21 | 23 | CCC(N)(CC)c1ccc(-c2ccc3[nH]ncc3c2N(C)C)cc1 [Compound 5-25, 5-[4-(1-Amino-1-ethylpropyl)phenyl]-4-dimethylamino-1H-indazole trihydrochloride]
22 | 27 | CC(N)c1ccc(-c2ccc3[nH]ncc3c2N(C)C)cc1 (stereo not drawn) [Compound 5-26, 5-[4-(1-Aminoethyl)phenyl]-4-dimethylamino-1H-indazole trihydrochloride]
23 | 86 | CC(C)(N)c1cnc(-c2ccc3[nH]ncc3c2)c(Cl)c1 [Compound 5-27, 5-[5-(1-Amino-1-methylethyl)-3-chloropyridin-2-yl]-1H-indazole trihydrochloride]
24 | 15 | CCc1c(-c2ccc(C(C)(C)N)cn2)ccc2[nH]ncc12 [Compound 5-28, 5-[5-(1-Amino-1-methylethyl)pyridin-2-yl]-4-ethyl-1H-indazole trihydrochloride]
25 | 2.7 | CC(C)(N)c1ccc(-c2ccc3[nH]ncc3c2C2CC2)nc1 [Compound 5-29, 5-[5-(1-Amino-1-methylethyl)pyridin-2-yl]-4-cyclo-propyl-1H-indazole trihydrochloride]
26 | 17 | C=Cc1c(-c2ccc(C(C)(C)N)cn2)ccc2[nH]ncc12 [Compound 5-30, 5-[5-(1-Amino-1-methylethyl)pyridin-2-yl]-4-vinyl-1H-indazole trihydrochloride]
27 | 614 | CCN(CC)c1c(-c2ccc(C(C)(C)N)cc2)ccc2[nH]ncc12 [Compound 5-31, 5-[4-(1-Amino-1-methylethyl)phenyl]-4-diethylamino-1H-indazole trihydrochloride]
28 | 47 | CC(C)(N)c1ccc(-c2ccc3[nH]ncc3c2CCO)cc1 [Compound 5-32, 5-[4-(1-Amino-1-methylethyl)phenyl]-4-(2-hydroxy-ethyl)-1H-indazole dihydrochloride]
29 | 234 | CC(C)(N)c1ccc(-c2ccc3[nH]ncc3c2CCO)nc1 [Compound 5-33, 5-[5-(1-Amino-1-methylethyl)pyridin-2-yl]-4-(2-hydroxyethyl)-1H-indazole trihydrochloride]
30 | 294 | CC(O)c1c(-c2ccc(C(C)(C)N)cc2)ccc2[nH]ncc12 (stereo not drawn) [Compound 5-34, 5-[4-(1-Amino-1-methylethyl)phenyl]-4-(1-hydroxy-ethyl)-1H-indazole dihydrochloride]
31 | 139 | CC(C)(N)c1ccc(-c2ccc3[nH]ncc3c2CO)cc1 [Compound 5-35, 5-[4-(1-Amino-1-methylethyl)phenyl]-4-hydroxymethyl-1H-indazole dihydrochloride]
32 | 35 | CC(C)(N)c1ccc(-c2ccc3[nH]ncc3c2C#N)cc1 [Compound 5-36, 5-[4-(1-Amino-1-methylethyl)phenyl]-4-cyano-1H-indazole monohydrochloride]

Row | Compound | Ki [nM]
33 | CC(C)(N)c1ccc(-c2ccc3[nH]nc(C=NO)c3c2)cc1 [Compound 5-12, 5-[4-(1-Amino-1-methylethyl)phenyl]-3-hydroxyimino-methyl-1H-indazole monohydrochloride] | 7.5

Reference: patent US8232308B2, “Methods for treating a disease in which Rho kinase is involved” (UBE Industries, Ltd., priority 2003, dated 2012)
